According to patent US5637583A, “Aminocyclohexylesters and uses thereof” (University of British Columbia, priority 1994, dated 1997):
Structures can show the parent of a compound that is named as a salt. Where two headings read alike, the source gives them in different places.

How the values were obtained:
cardiac sodium channel [1] = target: T1, cardiac sodium channel (Rattus norvegicus, UniProt P15389); test: Electrical stimulation of left ventricle in rats (iT, VFT; cardiac sodium channel blockade); type: in vivo; details: infusion rate for 25% increase from control; anesthetized rats
T1 sequence (P15389 whole entry, the tested form may be a part): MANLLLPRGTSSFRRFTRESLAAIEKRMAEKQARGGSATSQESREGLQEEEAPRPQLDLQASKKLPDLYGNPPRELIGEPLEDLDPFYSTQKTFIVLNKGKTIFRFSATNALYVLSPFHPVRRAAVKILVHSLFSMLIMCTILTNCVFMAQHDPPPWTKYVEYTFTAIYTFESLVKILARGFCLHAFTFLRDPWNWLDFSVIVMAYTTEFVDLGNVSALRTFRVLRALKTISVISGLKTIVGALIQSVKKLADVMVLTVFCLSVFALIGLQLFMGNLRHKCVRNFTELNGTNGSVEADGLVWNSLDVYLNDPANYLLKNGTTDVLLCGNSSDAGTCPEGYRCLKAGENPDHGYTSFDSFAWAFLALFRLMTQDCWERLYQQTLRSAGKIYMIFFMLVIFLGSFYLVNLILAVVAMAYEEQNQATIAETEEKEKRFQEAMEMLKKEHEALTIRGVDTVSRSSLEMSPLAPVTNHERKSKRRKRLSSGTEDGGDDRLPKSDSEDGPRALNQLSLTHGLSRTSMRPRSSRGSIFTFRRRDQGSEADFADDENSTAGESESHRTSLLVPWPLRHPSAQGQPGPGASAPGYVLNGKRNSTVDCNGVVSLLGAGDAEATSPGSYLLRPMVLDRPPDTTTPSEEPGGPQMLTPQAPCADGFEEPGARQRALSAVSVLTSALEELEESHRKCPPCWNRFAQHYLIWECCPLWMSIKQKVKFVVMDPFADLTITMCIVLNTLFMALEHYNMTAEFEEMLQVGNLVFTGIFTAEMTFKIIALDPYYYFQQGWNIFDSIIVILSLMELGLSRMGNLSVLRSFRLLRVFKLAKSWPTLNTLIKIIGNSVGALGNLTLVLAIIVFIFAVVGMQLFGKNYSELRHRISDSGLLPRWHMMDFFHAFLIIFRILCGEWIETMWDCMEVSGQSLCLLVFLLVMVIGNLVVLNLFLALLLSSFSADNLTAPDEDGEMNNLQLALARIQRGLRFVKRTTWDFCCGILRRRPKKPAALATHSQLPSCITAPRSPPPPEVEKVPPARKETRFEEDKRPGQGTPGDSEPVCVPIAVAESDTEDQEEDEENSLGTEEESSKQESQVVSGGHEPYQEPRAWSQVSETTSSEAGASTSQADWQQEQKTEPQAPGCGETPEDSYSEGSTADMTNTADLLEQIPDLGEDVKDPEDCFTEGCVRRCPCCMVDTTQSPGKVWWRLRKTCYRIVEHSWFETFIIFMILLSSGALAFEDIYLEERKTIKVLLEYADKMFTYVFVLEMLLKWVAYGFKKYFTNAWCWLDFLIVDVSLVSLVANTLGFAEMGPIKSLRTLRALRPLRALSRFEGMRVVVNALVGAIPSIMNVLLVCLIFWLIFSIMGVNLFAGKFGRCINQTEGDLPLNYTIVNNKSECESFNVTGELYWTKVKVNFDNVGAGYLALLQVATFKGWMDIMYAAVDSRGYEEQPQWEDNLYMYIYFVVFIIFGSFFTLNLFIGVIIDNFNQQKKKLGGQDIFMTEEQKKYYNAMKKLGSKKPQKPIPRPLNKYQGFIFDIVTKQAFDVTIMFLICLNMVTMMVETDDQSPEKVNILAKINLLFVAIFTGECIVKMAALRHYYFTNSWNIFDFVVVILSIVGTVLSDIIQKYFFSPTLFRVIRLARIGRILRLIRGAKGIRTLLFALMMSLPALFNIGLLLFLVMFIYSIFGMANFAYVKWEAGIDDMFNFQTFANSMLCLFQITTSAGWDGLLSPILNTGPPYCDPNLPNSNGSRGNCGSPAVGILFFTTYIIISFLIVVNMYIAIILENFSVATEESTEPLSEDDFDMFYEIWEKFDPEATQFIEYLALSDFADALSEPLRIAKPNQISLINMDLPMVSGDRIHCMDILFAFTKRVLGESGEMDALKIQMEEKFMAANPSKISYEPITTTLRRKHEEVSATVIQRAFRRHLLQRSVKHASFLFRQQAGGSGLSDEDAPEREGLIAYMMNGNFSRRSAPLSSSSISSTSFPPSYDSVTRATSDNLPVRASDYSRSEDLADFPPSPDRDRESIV
Procedure: Rats were prepared according to the preceding procedure. Two silver stimulating electrodes were inserted through the chest wall and implanted in the left ventricle. Square wave stimulation was used to determine threshold current for capture, ventricular fibrillation threshold current, and effective refractory period (Howard, P. G. and Walker, M. J. A., Proc. West. Pharmacol. Soc. 33:123-127 (1990)). Table 5 contains ED25 values for these indices of cardiac sodium channel blockade, where the ED25 is the infusion rate in micromoles/kg/minute of compound required to elicit a 25% increase from control. The increases in refractoriness indicate ancillary blockade of potassium channels. The threshold current for capture is represented by "iT". The fibrillation threshold current is represented by "VFT". The effective refracting period is represented by "ERP".

cardiac sodium channel [2] = target: T1, cardiac sodium channel; test: ECG parameters in anesthetized rats (RSh, PR, QRS; cardiac sodium channel blockade); type: in vivo; details: i.v. bolus; for ED25 PR (dose required to produce a 25% increase): P-R interval; for ED25 QRS (dose required to produce a 25% increase): QRS interval
Procedure: Rats weighing 200-250 gms were used in this example. Animals were anesthetized with 60 mg/kg pentobarbitone i.p. The carotid artery and jugular vein were cannulated for measurement of blood pressure and drug injection, respectively. ECG was recorded by insertion of electrodes placed along the anatomical axis of the heart. All compounds were given as bolus injections.
Various ECG parameters were measured. The most sensitive of these for measuring sodium channel blockade is RSh (J. Pharmacology Methods 27:51-58 (1992)). Table 4 describes the results of the tests as ED25 (micromoles/kg) which are the doses required to produce a 25% increase in the parameter measured (ne=not estimated). The increases in P-R interval, QRS interval and RSh indicate cardiac sodium channel blockade while the increase in Q-T interval indicates ancillary cardiac potassium channel blockade which is the property of a type 1 a antiarrhythmic.

potassium channels = test: Electrical stimulation of left ventricle in rats (ERP; ancillary blockade of potassium channels); type: in vivo, rat; details: infusion rate for 25% increase from control; anesthetized rats
Text: Two silver stimulating electrodes were inserted through the chest wall and implanted in the left ventricle. Square wave stimulation was used to determine threshold current for capture, ventricular fibrillation threshold current, and effective refractory period (Howard, P. G. and Walker, M. J. A., Proc. West. Pharmacol. Soc. 33:123-127 (1990)). […] The threshold current for capture is represented by "iT". The fibrillation threshold current is represented by "VFT". The effective refracting period is represented by "ERP".

[3] = tested on: conscious rats subject to coronary artery occlusion; test: Antiarrhythmic efficacy: incidence of cardiac arrhythmias in conscious rats subject to coronary artery occlusion; type: in vivo, rat; details: score 0-9 per Table 2, 30 min after occlusion
Procedure: Antiarrhythmic efficacy was assessed by investigating the effect of a compound on the incidence of cardiac arrhythmias in conscious rats subject to coronary artery occlusion. Rats weighing 200-300 gms were subjected to preparative surgery and assigned to groups in a random block design. In each case, the animal was anesthetized with halothane during surgical preparation. The left femoral artery was cannulated for measurement of mean arterial blood pressure and withdrawal of blood samples. The left femoral vein was also cannulated for injection of drugs. The thoracic cavity was opened and a polyethylene occluder loosely placed around the left anterior descending coronary artery. The thoracic cavity was then closed. ECG was recorded by insertion of electrodes placed along the anatomical axis of the heart. All cannulae and electrode leads were exteriorized in the mid scapular region. In random and double-blind manner, about 0.5 to 2 hours post-surgery, an infusion of vehicle, or the compound to be tested was given. After 15 minutes infusion, the occluder was pulled so as to produce coronary artery occlusion. ECG, arrhythmias, blood pressure, heart rate and mortality were monitored for 30 minutes after occlusion. Arrhythmias were recorded as ventricular tachycardia (VT) and ventricular fibrillation (VF) and scored according to Curtis, M. J. and Walker, M. J. A., Cardiovasc.
VPB=ventricular premature beats
VT=ventricular tachycardia
VF=ventricular fibrillation
Occlusion is associated with increases in R-wave height and "S-T" segment elevation; and an occluded zone (measured after death by cardiogreen dye perfusion) in the range of 25%-50% of total left-ventricular weight.

cardiac sodium channel [4] = target: T1, cardiac sodium channel; test: Whole cell voltage clamp tests, single isolated adult rat cardiac cells; type: cell-based
Procedure: In order to directly measure cardiac sodium channel blockade, standard whole cell voltage clamp tests were carried out using single isolated adult rat cardiac cells. Results in the form of EC50 values, which are micromolar concentrations required to produce a 50% reduction in sodium current, are presented in Table 6.

[5] = tested on: cardiac potassium channel; test: ECG parameters in anesthetized rats (QT; ancillary cardiac potassium channel blockade); type: in vivo, rat; details: i.v. bolus, Q-T interval
Procedure: Various ECG parameters were measured. […] The increases in P-R interval, QRS interval and RSh indicate cardiac sodium channel blockade while the increase in Q-T interval indicates ancillary cardiac potassium channel blockade which is the property of a type 1 a antiarrhythmic.

[6] = whole cell voltage clamp, isolated adult rat cardiac cells, read-out: EC50 (concentration required to produce a 50% reduction in sodium current)

## Cl.O=C(O[C@@H]1CCCC[C@H]1N1CCOCC1)c1cccc2ccccc12 (racemic) [Compound #15, (±)-trans-[2-(4-morpholinyl)cyclohexyl]-1-naphthoate monohydrochloride]
Cardiac sodium channel [1]
  ED25 VFT (fibrillation threshold current): 18 µmol/kg/min
  ED25 iT (threshold current for capture): 33 µmol/kg/min
Cardiac sodium channel [2]
  ED25 PR (dose required to produce a 25% increase): 340 µmol/kg
  ED25 QRS (dose required to produce a 25% increase): 90 µmol/kg
  ED25 RSh (dose required to produce a 25% increase): 80 µmol/kg
Potassium channels
  ED25 ERP (effective refractory period): 20 µmol/kg/min
[3]; dose 12 micromoles/kg/min infusion
  AS (arrhythmia score): 2

## Cl.O=C(Cc1cccc2sccc12)O[C@@H]1CCCC[C@H]1N1CCOCC1 (racemic) [Compound #16, (±)-trans-[2-(4-morpholinyl)cyclohexyl]benzo[b]thiophene-4-acetate monohydrochloride]
Cardiac sodium channel [4]; [6]
  EC50: 225 µM
Cardiac sodium channel [1]
  ED25 VFT (fibrillation threshold current): 2 µmol/kg/min
  ED25 iT (threshold current for capture): 15 µmol/kg/min
Cardiac sodium channel [2]
  ED25 PR (dose required to produce a 25% increase): 230 µmol/kg
  ED25 QRS (dose required to produce a 25% increase): 690 µmol/kg
  ED25 RSh (dose required to produce a 25% increase): 23 µmol/kg
[5]
  ED25 QT (dose required to produce a 25% increase): 33 µmol/kg
Potassium channels
  ED25 ERP (effective refractory period): 5 µmol/kg/min
[3]; dose 8 micromoles/kg/min infusion
  AS (arrhythmia score): 0.3

## O=C(COc1ccc(Cl)c(Cl)c1)O[C@@H]1CCCC[C@H]1N1CCOCC1 (relative stereo) [Compound #4, (±)-trans-[2-(4-morpholinyl)cyclohexyl](3,4-dichlorophenoxy)acetate monohydrochloride]
Cardiac sodium channel [4]; [6]
  EC50: > 500 µM
Cardiac sodium channel [2]
  ED25 PR (dose required to produce a 25% increase): 44 µmol/kg
  ED25 RSh (dose required to produce a 25% increase): 10 µmol/kg
[3]; dose 5 micromoles/kg/min infusion
  AS (arrhythmia score): 3.6

## O=C(CC1CCCCC1)O[C@@H]1CCCC[C@H]1N1CCCC1 (relative stereo) [Compound #7, (±)-trans-[2-(1-pyrrolidinyl)cyclohexyl](cyclohexyl)acetate monohydrochloride]
Cardiac sodium channel [2]
  ED25 PR (dose required to produce a 25% increase): 84 µmol/kg
  ED25 RSh (dose required to produce a 25% increase): 6 µmol/kg
[5]
  ED25 QT (dose required to produce a 25% increase): 41 µmol/kg

## O=C(Cc1cccc2ccccc12)O[C@@H]1CCCC[C@H]1N1CCOCC1 (relative stereo) [Compound #8, (±)-trans-[2-(4-morpholinyl)cyclohexyl]naphthyl-1-acetate monohydrochloride]
Cardiac sodium channel [4]; [6]
  EC50: 80 µM
Cardiac sodium channel [1]
  ED25 VFT (fibrillation threshold current): 2 µmol/kg/min
  ED25 iT (threshold current for capture): 5 µmol/kg/min
Cardiac sodium channel [2]
  ED25 PR (dose required to produce a 25% increase): 20 µmol/kg
  ED25 QRS (dose required to produce a 25% increase): 42 µmol/kg
  ED25 RSh (dose required to produce a 25% increase): 11 µmol/kg
[5]
  ED25 QT (dose required to produce a 25% increase): 57 µmol/kg
Potassium channels
  ED25 ERP (effective refractory period): 4 µmol/kg/min
[3]; dose 2 micromoles/kg/min infusion
  AS (arrhythmia score): 3

## O=C(Cc1ccc2ccccc2c1)O[C@@H]1CCCC[C@H]1N1CCOCC1 (relative stereo) [Compound #9, (±)-trans-[2-(4-morpholinyl)cyclohexyl]naphthyl-2-acetate monohydrochloride]
Cardiac sodium channel [4]; [6]
  EC50: > 100 µM
Cardiac sodium channel [1]
  ED25 VFT (fibrillation threshold current): 7 µmol/kg/min
  ED25 iT (threshold current for capture): 34 µmol/kg/min
Cardiac sodium channel [2]
  ED25 RSh (dose required to produce a 25% increase): 13 µmol/kg
[5]
  ED25 QT (dose required to produce a 25% increase): 20 µmol/kg
Potassium channels
  ED25 ERP (effective refractory period): 8 µmol/kg/min
[3]; dose 4 micromoles/kg/min infusion
  AS (arrhythmia score): 1.3

## O=C(Cc1ccccc1)O[C@@H]1CCCC[C@H]1N1CCOCC1 (relative stereo) [Compound #10, (±)-trans-[2-(4-morpholinyl)cyclohexyl]phenylacetate monohydrochloride]
Cardiac sodium channel [4]
  EC50: > 300 µM
Cardiac sodium channel [1]
  ED25 VFT (fibrillation threshold current): 1 µmol/kg/min
  ED25 iT (threshold current for capture): 15 µmol/kg/min
Cardiac sodium channel [2]
  ED25 RSh (dose required to produce a 25% increase): 16 µmol/kg
[5]
  ED25 QT (dose required to produce a 25% increase): 25 µmol/kg
Potassium channels
  ED25 ERP (effective refractory period): 8 µmol/kg/min
[3]; dose 10 micromoles/kg/min infusion
  AS (arrhythmia score): 2.2
